Reference: ChEMBL document CHEMBL1201862, “PubChem BioAssay data set” (2004)
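Assay format: 96-well plates, 48-hour exposure. GI50: concentration for 50% inhibition of growth.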 The source made the active and inactive calls. Rule as the data show it: active = GI50 up to about 1.1 µM and inactive = higher.

Columns and labels:
Test in all cases: NCI-60 cell line screen, 48 h
HCT-15 = tested on: HCT-15
BT-549 = tested on: BT-549
OVCAR-5 = tested on: OVCAR-5
KM12 = tested on: KM12
SK-OV-3 = tested on: SK-OV-3
NCI/ADR-RES = tested on: NCI/ADR-RES
M14 = tested on: M14
OVCAR-4 = tested on: OVCAR-4
SK-MEL-28 = tested on: SK-MEL-28
COLO 205 = tested on: COLO 205
NCI-H23 = tested on: NCI-H23
HOP-92 = tested on: HOP-92
CCRF-CEM = tested on: CCRF-CEM
NCI-H226 = tested on: NCI-H226
SN12C = tested on: SN12C
IGROV-1 = tested on: IGROV-1
K562 = tested on: K562
SR = tested on: SR
HL-60 = tested on: HL-60

Compound | GI50 (HCT-15) [µM] | GI50 (BT-549) | GI50 (OVCAR-5) | GI50 (KM12) | GI50 (SK-OV-3) | GI50 (NCI/ADR-RES) | GI50 (M14) | GI50 (OVCAR-4) | GI50 (SK-MEL-28) | GI50 (COLO 205) | GI50 (NCI-H23) | GI50 (HOP-92) | GI50 (CCRF-CEM) | GI50 (NCI-H226) | GI50 (SN12C) | GI50 (IGROV-1) | GI50 (K562) | GI50 (SR) | GI50 (HL-60)
CN(C)C(=O)C(F)(F)C(c1ccc(F)cc1)C1C(=O)N(C)C(=O)N(C)C1=O (configuration not stated) | > 100 | > 100 µM (inactive) | > 100 µM (inactive) | > 100 µM (inactive) | > 100 µM (inactive) | > 100 µM (inactive) | > 100 µM (inactive) | > 100 µM (inactive) | > 100 µM (inactive) | > 100 µM (inactive) | > 100 µM (inactive) | > 100 µM (inactive) | > 100 µM (inactive) | > 100 µM (inactive) | – | – | – | – | –
O=C(OCc1ccccc1CN1CCOCC1)c1cccc(Br)c1 | 36.4 | 52.6 µM (inactive) | 36.3 µM (inactive) | – | > 100 µM (inactive) | 26.7 µM (inactive) | 36.9 µM (inactive) | 20.9 µM (inactive) | 33.1 µM (inactive) | 39.4 µM (inactive) | 27.9 µM (inactive) | 43.6 µM (inactive) | – | 44.8 µM (inactive) | 39.3 µM (inactive) | 19.7 µM (inactive) | 6.3 µM (inactive) | – | –
CCC(=N\NC(N)=S)/C(C)=N/O | > 100 | – | > 100 µM (inactive) | > 100 µM (inactive) | > 100 µM (inactive) | > 100 µM (inactive) | > 100 µM (inactive) | > 100 µM (inactive) | > 100 µM (inactive) | > 100 µM (inactive) | > 100 µM (inactive) | > 100 µM (inactive) | – | > 100 µM (inactive) | > 100 µM (inactive) | > 100 µM (inactive) | > 100 µM (inactive) | – | –
Nc1nc(N)c2c(-c3ccccc3)ccnc2n1 | – | > 100 µM (inactive) | > 100 µM (inactive) | – | > 100 µM (inactive) | – | – | > 100 µM (inactive) | 40.5 µM (inactive) | > 100 µM (inactive) | > 100 µM (inactive) | 81.7 µM (inactive) | > 100 µM (inactive) | 40.4 µM (inactive) | > 100 µM (inactive) | > 100 µM (inactive) | > 100 µM (inactive) | > 100 µM (inactive) | > 100 µM (inactive)
CC1=CC2=C(C#N)C(=O)OC2(C)C(c2ccccc2)C1 (configuration not stated) | > 100 | > 100 µM (inactive) | > 100 µM (inactive) | > 100 µM (inactive) | > 100 µM (inactive) | 72.1 µM (inactive) | > 100 µM (inactive) | 87.7 µM (inactive) | > 100 µM (inactive) | – | – | 87.5 µM (inactive) | – | > 100 µM (inactive) | > 100 µM (inactive) | 6.04 µM (inactive) | 68.7 µM (inactive) | – | –
c1ccc([P+](Cc2ccc(C[P+](c3ccccc3)(c3ccccc3)c3ccccc3)cc2)(c2ccccc2)c2ccccc2)cc1 | > 100 | – | 88.5 µM (inactive) | 41.8 µM (inactive) | > 100 µM (inactive) | > 100 µM (inactive) | 58.2 µM (inactive) | 48.1 µM (inactive) | 67.9 µM (inactive) | 31.2 µM (inactive) | 32.7 µM (inactive) | 26.3 µM (inactive) | 71 µM (inactive) | > 100 µM (inactive) | 67.5 µM (inactive) | 20.4 µM (inactive) | 9.66 µM (inactive) | > 100 µM (inactive) | 55.1 µM (inactive)
O=C(O)CC(C(=O)O)c1ccccc1[N+](=O)[O-] (configuration not stated) | > 100 | > 100 µM (inactive) | > 100 µM (inactive) | > 100 µM (inactive) | > 100 µM (inactive) | > 100 µM (inactive) | > 100 µM (inactive) | > 100 µM (inactive) | > 100 µM (inactive) | > 100 µM (inactive) | > 100 µM (inactive) | > 100 µM (inactive) | > 100 µM (inactive) | > 100 µM (inactive) | > 100 µM (inactive) | > 100 µM (inactive) | > 100 µM (inactive) | – | > 100 µM (inactive)
CCOC(=O)C(C(=O)OCC)C1C=CCC2c3ccccc3COCC21 (configuration not stated) | 40 | 49 µM (inactive) | > 100 µM (inactive) | 33.6 µM (inactive) | 85.5 µM (inactive) | 28.2 µM (inactive) | 49.9 µM (inactive) | 28.6 µM (inactive) | 55.7 µM (inactive) | 23.7 µM (inactive) | 43.6 µM (inactive) | > 100 µM (inactive) | 36.1 µM (inactive) | 73.8 µM (inactive) | 79.6 µM (inactive) | 75.5 µM (inactive) | 41.9 µM (inactive) | – | 22.4 µM (inactive)
CCn1c2ccccc2c2cc(Nc3cc(C)[nH]c(=O)n3)ccc21 | > 100 | – | > 100 µM (inactive) | 5.7 µM (inactive) | > 100 µM (inactive) | > 100 µM (inactive) | > 100 µM (inactive) | > 100 µM (inactive) | > 100 µM (inactive) | > 100 µM (inactive) | > 100 µM (inactive) | > 100 µM (inactive) | – | – | > 100 µM (inactive) | – | 0.47 µM (active) | 0.0199 µM (active) | 0.255 µM (active)
